The subject of the experiment is Male Wistar rats. Kind of experiment: Enteropooling effect (intestinal fluid volume) in fasted rats. The format is in vivo, rat. To be noted: intestinal fluid volume 30 min after administration, dose yielding a 50% increase relative to vehicle control; for ED50: Rattus norvegicus, 0.5 h. The protocol: Male Wistar rats (Crj Wistar Rat, body weight: 180-200 g) were used. Animals were fasted for 24 hours with free access to water. 5 mL/kg of distilled water containing the compound 5, PGE1 or PGE2 was orally administrated (p.o.), or 2 mL/kg of physiological saline containing the compound 5 was injected intravenously (i.v.) to the animals. Thirty minutes after the administration, the animals were euthanized by cervical dislocation, and the abdominal cavity was opened surgically. The intestinal fluid was collected and its volume was measured. The dose of test substance yielding a 50% increase in intestinal fluid volume relative to the control group, which was received the vehicle only, was defined as the ED50 value.

Molecules are shown by their SMILES.

As for `CCCCC[C@H](O)/C=C/[C@H]1[C@H](O)CC(=O)[C@@H]1CCCCCCC(=O)O` [PGE1], the “Enteropooling ED50” value (p.o. in distilled water) stood at 420 µg/kg. The term ED50 denotes the dose at which the effect has come halfway, by size or by number of responders. Read a high ED50 as a need for a large dose. Take `CCCCC(F)(F)C(O)CC[C@H]1[C@H](O)CC(=O)[C@@H]1CCCCCCC(=O)O` (stereo partly shown) [Compound 5, 13,14-dihydro-15RS-hydroxy-16,16-difluoro-PGE1]: the ED50 by setting is: (iv, i.v. in physiological saline) 0.88 µg/kg; (po, p.o. in distilled water) 0.6 µg/kg. In the case of `CCCCC[C@H](O)/C=C/[C@H]1[C@H](O)CC(=O)[C@@H]1C/C=C\CCCC(=O)O` [PGE2], for the setting “p.o. in distilled water”, the “Enteropooling ED50” value was 130 µg/kg.

The record behind these values is patent publication US7459583B2, “Method for providing a cathartic effect” (Sucampo AG, priority 2001, dated 2008).
